Columns and labels:
[1] = system: Human IgM; assay: Glycan array analysis (secondary test), relative anti-glycan Human IgM, pancreatic cancer; assay type: binding
Procedure: The reagents, equipment and assay procedures were totally the same as primary test. However, the intensity of array was converted into “Ab level (μg/mL)” based on following calculation which is relative to Anti-human Globo H IgG.
The internal curve of each chip was using linear regression to calculate slope and intercept. In certain examples, the Ab level (μg/mL)=[(raw data-intercept)/slope]×0.1. The internal curve was performed using 0.0625, 0.125, 0.25, 0.5, 0.75, and 1 μg/mL of human IgM.
Relative Anti-glycan Human IgM: There were total 277 clinical samples (108 pancreatic cancer and 169 healthy serum) performed using Globo H-lipid 1 and SSEA-4-lipid 1 immobilized arrays. The median values of Globo H-lipid 1 IgM test were 0.32 (pancreatic cancer) and 0.25 (healthy) [FIG. 11A]. The median values of SSEA-4-lipid 1 IgM test were 0.12 (pancreatic cancer) and 0.08 (healthy) [FIG. 11B].

[2] = system: Human IgG; assay: Glycan array analysis (primary test), glycan score of Human IgG; assay type: binding
Excerpt: (§1) This testing platform utilized Agnitio BioIC system which performed an automatically ELISA reaction within a microfluidic cartridge. Each cartridge contained an array of microfluidic pumps and valves, a channel network, reagent storage reservoirs, a glycan array reaction zone, and a waste storage reservoir. To perform the test, all reagent and test sample were pumped sequentially, from their respected reservoirs in to a reaction zone containing the glycan microarray in order to carry out a multiplexed ELISA reaction with chemical luminescence. The result data was captured simultaneously and data analysis was performed by the LabIT software provided by Agnitio Science and Technology Inc. The specification of equipment list of Agnitio BioIC system is listed in Table 2.
The Microfluidic cartridge was manufactured at Agnitio Science and Technology Inc. The microfluidic cartridge was composed by three layers shown in FIG. 9. The upper layer contained serum and reagents reservoirs, microfluidic pumps, and ELISA channel network. […]
(§2) The glycan array was put on the Agnitio BioIC Pumping Machine for pressurizing 30 minutes. The bound serum was visualized monitored using Agnitio BioIC Analyzer. The absorbance intensity of array was converted into “Glycan Scores” based on the following calculation: In certain examples, glycan scores=(raw data−background)/Internal Control×10. […]

[3] = system: Human IgM; assay: Glycan array analysis (primary test), glycan score of Human IgM; assay type: binding
Excerpt: as §1
The Microfluidic cartridge was manufactured at Agnitio Science and Technology Inc. The microfluidic cartridge was composed by three layers shown in FIG. 9. The upper layer contained serum and reagents reservoirs, microfluidic pumps, and ELISA channel network. The rubber middle layer contained a coated nitrocellulose membrane. The glycan antigens (Globo H-ceramide and Globo H-lipid 1) were immobilized onto the nitrocellulose membrane via hydrophobic interactions. The bottom layer contained a tank as for the waste reservoir. There were one hundred and twenty spots for original array layout design. In order to ensure the spot-to-spot coefficient of variation (CV) was lower than 15%, we only used central sixty-four spots for following clinical sample test.
Reagent preparation: Sixty-six microliter Normal Human Serum (NETS) or pancreatic cancer patient's serum was added in 594 μL Sample Diluent Buffer (BioCheck Inc., Cat#MB 10175) to form ten-fold dilution. The Secondary Antibody Solution was performed by first adding 2 μL Horseradish peroxidase (HRP)-conjugated goat anti-human IgG (KPL Inc., Cat#474-1002)/IgM (KPL Inc., Cat#474-1003) in 98 μL Conjugate Buffer (SuperBlock (TBS) Blocking Buffer plus 0.2% Tween 20, Thermo Fisher Scientific Inc., Cat#37535) to form fifty-fold dilution. Next, 40 μL diluted solution was pumped into 2360 μL Conjugate Buffer to form the Secondary Antibody Solution (3000× diluted).
Assay procedure: Six hundred and twenty microliter Wash Buffer (Phosphate-buffered saline (Thermo Fisher Scientific Inc., Cat#70011) plus 0.2% (vol/vol) Tween 20 (J. T. Baker, Cat#JTB-X251-07)) was added in the “Wash” hole of array. […]
as §2

[4] = system: VK9; assay: ELISA binding of VK9 to plate-coated Globo H-ceramide and Globo H-lipids; conditions: glycan immobilized on microtiter plate from 0.001 to 10 μg/mL; FIG. 8A
Procedure: Enzyme-linked immunosorbent assay. Clear Flat-Bottom Immuno Nonsterile 96-Well Plates (Thermo Fisher Scientific Inc., Cat#442404)) were coated with the respective glycan-linked glycopeptides at 0.2 μg to 50 μL ethanol per well and were incubated at room temperature overnight. Then 100 μL Casein Blocking Buffer (Sigma-Aldrich Co. LLC, Cat#B6429) was added to each well and the microtiter plate was incubated at room temperature for 30 minutes. All subsequent steps were performed at room temperature.
The microtiter plate was treated with 50 μL of different dilutions of VK9 cells in Casein Blocking Buffer to each well and incubated at room temperature for 1 hr. The wells were then washed three times with Phosphate-buffered saline (Thermo Fisher Scientific Inc., Cat#70011) plus 0.05% (vol/vol) Tween 20 (J. T. Baker, Cat#JTB-X251-07) using a microplate washer (SkanWash 400, Molecular Devices LLC.). […]
The microtiter plate was treated with 100 μL of Alkaline Phosphatase (pNPP) Yellow Liquid Substrate System for ELISA (Sigma-Aldrich Co. LLC., Cat#P7998) at 37° C. for 20 minutes and the reaction was stopped by adding another 50 μL of Stop Solution (3N NaOH). The bound VK9 cells were visualized monitored at 405 nm using a microplate reader (SpectraMax M2, Molecular Devices LLC.). […]

[5] = system: IgM; assay: Sugar array IgM binding with pancreatic cancer and healthy clinical samples; parameters: species or system human
Procedure: The Globo H lipid 1, Globo H lipid 2, and Globo H-ceramide were immobilized on microtiter plate from 0.001 to 10 μg/mL, separately. […] In addition, the comparison of IgM binding patterns of Globo H-ceramide, Globo H-lipid 1, and Globo H-lipid 2 using sugar array was listed in FIG. 8B. […] In some embodiments the complex binding agent may comprise any of the complex binding agents or detectable labels of this disclosure. In certain exemplary embodiments, the Globo H ceramide and Globo H lipids are the array elements and the IgM antibodies are from the sample. And then secondary labeled anti-human ab are used to detect the complexes

optical density at 405 nm (OD405) [4]	Mean (IgM) Healthy (n = 100) ([5]; healthy samples)	Mean (IgM) Pancreatic cancer (n = 115) ([5]; pancreatic cancer samples)	Molecule	median Ab level, IgM test ([1]; healthy serum) [µg/mL]	median Ab level, IgM test ([1]; pancreatic cancer serum) [µg/mL]	median glycan score, IgG test ([2]; healthy serum)	median glycan score, IgG test ([2]; pancreatic cancer serum)	median glycan score, IgM test ([3]; healthy serum)	median glycan score, IgM test ([3]; pancreatic cancer serum)
–	–	–	CCCCCCCCCCCCCCCCOCC(OCCCCCCCCCCCCCCCC)C(=O)NCCCCCO[C@H]1OC(CO)[C@@H](O[C@@H]2OC(CO)[C@H](O[C@H]3OC(CO)[C@H](O)C(O[C@@H]4OC(CO)[C@H](O)C(O[C@@H]5OC(CO)[C@H](O)C(O)C5O[C@@H]5OC(C)[C@@H](O)C(O)C5O)C4NC(C)=O)C3O)C(O)C2O)C(O)C1O (stereo partly shown) [Globo H-lipid 1]	0.25	0.32	0.12	0.54	2.56	6.64
higher than Globo H-ceramide	–	–	CCCCCCCCCCCCCCCCOC[C@@H](COC(=O)CCCC(=O)NCCCCCO[C@H]1OC(CO)[C@@H](O[C@@H]2OC(CO)[C@H](O[C@H]3OC(CO)[C@H](O)C(O[C@@H]4OC(CO)[C@H](O)C(O[C@@H]5OC(CO)[C@H](O)C(O)C5O[C@@H]5OC(C)[C@@H](O)C(O)C5O)C4NC(C)=O)C3O)C(O)C2O)C(O)C1O)OCCCCCCCCCCCCCCCC (stereo partly shown) [Globo H-lipid 2]	–	–	–	–	–	–
–	–	–	CCCCCCCCCCCCCCCCOC[C@@H](OCCCCCCCCCCCCCCCC)C(=O)NCCCCCO[C@@H]1O[C@H](CO)[C@@H](O[C@@H]2O[C@H](CO)[C@H](O[C@H]3O[C@H](CO)[C@H](O)[C@H](O[C@@H]4O[C@H](CO)[C@H](O)[C@H](O[C@@H]5O[C@H](CO)[C@H](O)[C@H](O[C@]6(C(=O)O)C[C@H](O)[C@@H](NC(C)=O)[C@H]([C@H](O)[C@H](O)CO)O6)[C@H]5O)[C@H]4NC(C)=O)[C@H]3O)[C@H](O)[C@H]2O)[C@H](O)[C@H]1O [SSEA-4-lipid 1]	0.08	0.12	–	–	–	–
–	1977.88	3130.03	Globo H-ceramide [reference compound]	–	–	–	–	1.57	2.53

From patent publication US10935544B2, “Glycan arrays and method of use” (OBI Pharma, Inc., priority 2015, dated 2021)
